# Data from ChEMBL document CHEMBL4699578, “Next generation quorum sensing inhibitors: Accounts on structure activity relationship studies and biological activities” (Bioorg Med Chem, 2020).
# Experiments:
# [1] = Inhibition of quorum sensing system in Pseudomonas aeruginosa
# [2] = system: Escherichia coli; experiment: Inhibition of quorum sensing system in Escherichia coli assessed as reduction in biofilm formation at 250 uM incubated for 24 hrs by crystal violet staining based method relative to control
# [3] = Inhibition of quorum sensing system in Pseudomonas aeruginosa PAO1 assessed as reduction in […] incubated for 18 hrs by congo red staining based assay
# [4] = Inhibition of quorum sensing system in Pseudomonas aeruginosa PAO1 assessed as reduction in pyocyanin production incubated for 8 hrs
# [5] = Antagonist activity at Pseudomonas aeruginosa PAO-JP2 LasR assessed as reduction in GFP production incubated for 6 hrs in presence of OdDHL by fluorescence method
# [6] = system: Pseudomonas aeruginosa; experiment: Antagonist activity at Pseudomonas aeruginosa PAO-JP2 LasR assessed as reduction in GFP production incubated for 6 hrs in presence of OdDHL by fluorescence method relative to control; set-up: scale not given: the % may be the effect or the level left; settings: filed as antagonist
# [7] = system: Vibrio campbellii ATCC BAA-1116; experiment: Inhibition of quorum sensing system in Vibrio harveyi BB120 assessed as delay time for the onset of bioluminescence at 50 ug/ml measured every 10 mins after 5 min of double orbital stirring during 11 hrs 50 mins by luminescence method; settings: dose 50.0 µg/ml, time 710.0 min
# [8] = system: Escherichia coli; experiment: Inhibition of quorum sensing system in Escherichia coli MT102 at 250 uM measured after 15 hrs by fluorescence method relative to control
# [9] = system: Pseudomonas aeruginosa; experiment: Inhibition of quorum sensing system in Pseudomonas aeruginosa MH602 harboring lasB promoter measured at 250 uM every 30 mins over 22 hrs by fluorescence method relative to control; settings: time hrs >22
# [10] = Inhibition of quorum sensing system in Staphylococcus aureus
# [11] = Antagonist activity at Vibrio fischeri quorum sensing system in presence of OHHL by bioluminescence method; set-up: species or system Aliivibrio fischeri
# [12] = Inhibition of LuxR in Escherichia coli Top10 assessed as reduction in GFP production using 3OC6HSL as substrate by fluorescence method
# [13] = biological target: T1, Transcriptional activator protein LuxR (Aliivibrio fischeri, UniProt P12746); experiment: Antagonist activity at Vibrio fischeri luxR expressed in Escherichia coli NM522 in presence of 3-oxo-C6-HSL
# T1 sequence (P12746 whole entry): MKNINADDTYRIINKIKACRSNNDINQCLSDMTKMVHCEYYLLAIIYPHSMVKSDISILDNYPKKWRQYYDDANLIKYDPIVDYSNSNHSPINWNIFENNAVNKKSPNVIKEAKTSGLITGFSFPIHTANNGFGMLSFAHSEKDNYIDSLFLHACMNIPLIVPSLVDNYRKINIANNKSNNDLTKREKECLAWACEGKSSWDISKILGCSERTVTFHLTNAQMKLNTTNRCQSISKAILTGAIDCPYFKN
# [14] = system: Pseudomonas aeruginosa; experiment: Inhibition of quorum sensing system in Pseudomonas aeruginosa assessed as reduction in biofilm formation at 250 uM incubated for 24 hrs by crystal violet staining based method relative to control
# [15] = Inhibition of quorum sensing system in Pseudomonas aeruginosa PAO1
# [16] = Inhibition of quorum sensing system in Chromobacterium violaceum CV026 assessed as reduction in violacein production incubated for 16 to 18 hrs by spot test method
# [17] = Inhibition of quorum sensing system in Stenotrophomonas maltophilia
# [18] = Inhibition of quorum sensing system in Proteus mirabilis
# [19] = Inhibition of quorum sensing system in Escherichia coli O157:H7
# [20] = Inhibition of quorum sensing system in Burkholderia cepacia
structure (smiles),measurement,setting,value
O=C(O)/C=C/c1ccccc1 [CINNAMIC ACID],IC50,[1],1680 µM
O=C(O)c1ccccc1O [SALICYLIC ACID],IC50,[1],1440 µM
O=C1C(=O)N(C(=O)CCl)c2ccccc21,inhibition,[2],87.9%
O=C1c2c(O)cc(O)cc2O[C@H](c2ccc(O)c(O)c2)[C@H]1O [(+)-TAXIFOLIN],IC50,[3],4000 µM
same,IC50,[4],4000 µM
CCCCCCCCCNC(=O)CC(=O)c1ccco1,IC50,[5],1.2 µM
same,Activity,[6],96%
COC1=CC(=O)C(O)=C(C[C@]2(C)[C@@H](C)CC[C@]3(C)OC(=O)CCC[C@@H]23)C1=O,TIME,[7],0.667 h
C#CCNC(=O)C(=O)c1cc(F)ccc1NC(=O)CCl,inhibition,[2],89.5%
same,inhibition,[8],73.5%
same,inhibition,[9],71.5%
O=C(OC[C@H]1O[C@@H](OC(=O)c2cc(O)c(O)c(OC(=O)c3cc(O)c(O)c(O)c3)c2)[C@H](OC(=O)c2cc(O)c(O)c(OC(=O)c3cc(O)c(O)c(O)c3)c2)[C@@H](OC(=O)c2cc(O)c(O)c(OC(=O)c3cc(O)c(O)c(O)c3)c2)[C@@H]1OC(=O)c1cc(O)c(O)c(OC(=O)c2cc(O)c(O)c(O)c2)c1)c1cc(O)c(O)c(OC(=O)c2cc(O)c(O)c(O)c2)c1 [TANNIC ACID],IC50,[10],20 µM
C#CCNC(=O)C(=O)c1cc(Cl)ccc1NC(=O)CCl,inhibition,[2],90.8%
same,inhibition,[8],72.1%
same,inhibition,[9],71.5%
O=C(N[C@H]1CCOC1=O)SCc1ccc([N+](=O)[O-])cc1,IC50,[11],23 µM
CCOC(=O)/C=C1\CC(NCc2ccc(C)cc2)C(=O)N1Cc1ccc(C)cc1 (stereo unspecified),IC50,[12],50 µM
Nc1ccccc1[N+](=O)[O-] [2-NITROANILINE],IC50,[13],85 µM
C#CCNC(=O)C(=O)c1ccccc1NC(=O)CCl,inhibition,[14],66.9%
same,inhibition,[8],71.5%
COc1cc(/C=C/C(=O)CC(=O)/C=C/c2ccc(O)c(OC)c2)ccc1O [CURCUMIN],IC50,[15],3 µM
C#CCNC(=O)C(=O)c1cc(Br)ccc1NC(=O)CCl,inhibition,[14],66.5%
O=C1C[C@@H](c2ccc(O)cc2)Oc2cc(O)cc(O)c21 [NARINGENIN],IC50,[3],4000 µM
same,IC50,[4],4000 µM
O=C1C[C@@H](c2ccc(O)c(O)c2)Oc2cc(O)cc(O)c21 [ERIODICTYOL],IC50,[3],4000 µM
same,IC50,[4],4000 µM
O=C(Nc1ccc(S(=O)(=O)N[C@H]2CCOC2=O)cc1)c1sccc1Cl,IC50,[16],6.19 µM
Oc1cc(O)c2c(c1)O[C@H](c1ccc(O)c(O)c1)[C@@H](O)C2 [CIANIDANOL],IC50,[15],4000 µM
Cc1ccc2c(c1)C(=O)C(=O)N2C(=O)CCl,inhibition,[14],71.2%
C=C1CCC[C@H]2[C@](C)(CC3=C(O)C(=O)C=C(O)C3=O)[C@@H](C)CC[C@]12C,TIME,[7],2.5 h
C[C@H]1CC[C@]2(C)C(=O)CCC[C@H]2[C@]1(C)CC1=C(O)C(=O)CC1=O,TIME,[7],0.667 h
CC1=CC(=O)C(C(C)C)=CC1=O [THYMOQUINONE],IC50,[10],130 µM
O=C(N[C@H]1CCOC1=O)OCc1ccc([N+](=O)[O-])cc1,IC50,[11],22 µM
O=C(/C=C/c1ccc(O)c(O)c1)O[C@@H]1C[C@](O)(C(=O)O)C[C@@H](O)[C@H]1O [CHLOROGENIC ACID],IC50,[17],22 µM
C=C1CCC[C@H]2[C@](C)(Cc3c(O)c(OC(C)=O)cc(OC)c3OC(C)=O)[C@@H](C)CC[C@]12C,TIME,[7],1 h
O=C1Cn2nncc2CNC(=O)C(=O)c2ccccc2NC(=O)Cn2nncc2CNC(=O)C(=O)c2ccccc2N1,inhibition,[9],73.5%
O=C/C=C/c1ccccc1 [CINNAMALDEHYDE],IC50,[15],5900 µM
O=c1c(O)c(-c2ccc(O)cc2)oc2cc(O)cc(O)c12 [KAEMPFEROL],IC50,[10],220 µM
Oc1ccc(/C=C/c2cc(O)cc(O)c2)cc1 [RESVERATROL],IC50,[18],65 µM
O=c1c(O)c(-c2ccc(O)c(O)c2)oc2cc(O)cc(O)c12 [QUERCETIN],IC50,[19],20 µM
O=c1oc2c(O)c(O)cc3c(=O)oc4c(O)c(O)cc1c4c23 [ELLAGIC ACID],IC50,[20],132 µM
